Source: patent US10882835B2 (Imago Biosciences, Inc., priority 2013, dated 2021)
pIC50: −log10 of the molar value.

What was measured:
[1] = Metabolic stability in murine liver microsomes; type: in vitro ADME; conditions: mouse liver microsomes, 2 μM compound, NADPH
Experimental: The metabolic stability of compounds disclosed herein in pooled human liver microsomes (HLM) and pooled male mouse liver microsomes (MMLM) was determined according to the following protocol, in which the concentrations of compounds in reaction systems were evaluated by LC/MS/MS for estimating the stability in liver microsomes.
Pooled human liver microsomes (HMMCPL; PL050B) and pooled male mouse liver microsomes (MSMCPL; MS033) were purchased from CellzDirect (Invitrogen). Microsomes were stored at −80 C prior to use.
A master solution was prepared containing microsome (stock concentration 5 mg/mL, volume 50 μL, final concentration 0.5 mg/mL), MgCl2 solution (stock concentration 50 mM, volume 50 μL, final concentration 5 mM), phosphate buffer (stock concentration 200 mM, volume 250 μL, final concentration 100 mM), and water (volume […]. Five μL of 200 μM test compounds or control solution (control compound: verapamil) was then added. The final concentration of test compounds or verapamil in the reaction system was 2 μM. The mixture was pre-warmed at 37 C for 5 min.
The reaction was started with the addition of 50 μL of 10 mM NADPH solution at the final concentration of 1 mM and carried out at 37 C. 50 μL of ultra-pure H2O was used instead of NADPH solution in the negative control.
Aliquots of 50 μL were taken from the reaction solution at 0 and 30 min. The reaction was stopped by the addition of 3 volumes of cold methanol with IS (200 nM imipramine, 200 nM labetalol and 2 μM ketoprofen) at the designated time points. Samples were centrifuged at 16,000 g for 10 minutes to precipitate protein. Aliquot of 100 μL of the supernatant was diluted by 100 μL ultra-pure H2O, and the mixture was used for LC/MS/MS analysis. All experiments were performed in duplicate.
Samples were analyzed using liquid chromatography-mass spectrometry. The LC system comprised a Shimadzu liquid chromatograph separation system equipped with degasser DGU-20A3, solvent delivery unit LC-20AD, system controller CBM-20A, column oven CTO-10ASVP and CTC Analytics HTC PAL System. Chromatographic conditions included a Phenomenex column, 5.0μ C18 (2.0×50 mm); a mobile phase of 0.1% formic acid in acetonitrile and 0.1% formic acid in water; an elution rate of 500 μL/min; column temperature 25 C; injection volume 10 μL. Mass spectrometric analysis was performed using an API 4000 instrument from AB Inc. (Canada) with an ESI interface. The data acquisition and control system were created using Analyst 1.5.1 software from ABI Inc. A turbo spray ion source and electrospray ionization were employed in a multiple reaction monitoring (MRM) scan. Additional parameters included: collision gas, 6 L/min; curtain gas, 30 L/min; nebulize gas, 50 L/min; auxiliary gas, 50 L/min; temperature, 500 C; ionspray voltage, +5500 v (positive MRM). Quadripoles Q1 and Q3 were set to 456.2 and 200.2, respectively; declustering potential (DP), entrance potential (EP), and collision cell entrance potential (CE) were set to 120, 10, and 55 v, respectively; collision cell exit potential (CXP) was 12 v.
All calculations were carried out using Microsoft Excel. Peak areas were determined from extracted ion chromatograms. The control compounds were included in the assay. Any value of the compounds that was not within the specified limits was rejected and the experiment was repeated. The reaction system without the cofactors was used to exclude the misleading factor that resulted from instability of chemical itself.

KDM1A (LSD1) = KDM1A (LSD1) (Homo sapiens (Human), UniProt O60341); experiment: 10-dose IC50 fluorescence coupling enzyme assay, LSD1 demethylase activity on histone H3(1-21)K4me2 peptide (HRP/Amplex Red); type: biochemical; conditions: 10 μM histone H3(1-21)K4me2 peptide substrate

Row | SMILES | % at 30 min, MLM [1] | % at 30 min, MLM ([1]; numeric values of Table 2) [%] | pIC50 (KDM1A (LSD1))
1 | C[C@@]1(NCCS(=O)(=O)C[C@H](NC(=O)c2ccc(F)cc2)C(=O)N2CCOCC2)C[C@H]1c1ccc(F)cc1 [Example 17, 4-fluoro-N—((R)-3-((2-(((1R,2S)-2-(4-fluorophenyl)-1-methylcyclopropyl)amino)ethyl)sulfonyl)-1-morpholino-1-oxopropan-2-yl)benzamide] | − (− is <20%) | 2.7 | > 6.00
2 | COc1ccc([C@@H]2C[C@H]2NCCS(=O)(=O)C[C@H](NC(=O)c2ccc(F)cc2)C(=O)N2CCOCC2)cc1 [Example 18, 4-fluoro-N—((R)-3-((2-(((1R,2S)-2-(4-methoxyphenyl)cyclopropyl)amino)ethyl)sulfonyl)-1-morpholino-1-oxopropan-2-yl)benzamide] | − (− is <20%) | – | > 6.00
3 | O=C(N[C@@H](CS(=O)(=O)CCN[C@@H]1C[C@H]1c1ccc(F)cc1)C(=O)N1CCOCC1)c1ccc(F)cc1 [Example 19, 4-fluoro-N—((R)-3-((2-(((1R,2S)-2-(4-fluorophenyl)cyclopropyl)amino)ethyl)sulfonyl)-1-morpholino-1-oxopropan-2-yl)benzamide] | − (− is <20%) | 2.3 | > 6.00
4 | CN(C(=O)c1ccccc1)[C@@H](CCCCN[C@]1(C)C[C@H]1c1ccc(F)cc1)C(=O)N1CCN(S(C)(=O)=O)CC1 [Example 27, N-[(2S)-6-[[(1R,2S)-2-(4-fluorophenyl)-1-methylcyclopropyl]amino]-1-(4-methanesulfonylpiperazin-1-yl)-1-oxohexan-2-yl]-N-methylbenzamide] | + (+ is ≥20%) | – | > 6.00
